The values that follow come from ChEMBL document CHEMBL5338801, “Carbohydrate Strengthens the Immunotherapeutic Effect of Small-Molecule PD-L1 Inhibitors” (J Med Chem, 2023).

One data set deals with Jurkat. Nature of the data set: Cytotoxicity against human Jurkat cells assessed as cell growth inhibition incubated for 48 hrs by MTT assay. It counts as functional, cell-based.
For data set [1], the target named is Programmed cell death protein 1/Programmed cell death 1 ligand 1 (Homo sapiens) (UniProt Q15116+Q9NZQ7). As to conditions: dose 300.0 nM, time 15.0 min.
Data set [2] has as its target Programmed cell death 1 ligand 1 (Homo sapiens) (UniProt Q9NZQ7). The experiment in a line: Induction of human PD-L1 degradation expressed in MC38 cells at 0.1 to 10 uM cocultured for 72 hrs by Western blotting analysis. Conditions: dose 0.1-10 µM. It counts as cell-based. Background: In western blotting, separated proteins are transferred to a membrane and probed.

A short description of data set [3]: Partition coefficient, logD of compound in 1-octanol and phosphate buffer at pH 7.4 incubated for 1 hr under shaking condition by HPLC analysis. The data set is classed as physicochemical. Conditions: 1-octanol/phosphate buffer, pH 7.4.
A further data set relates to MC-38. Nature of the data set: Cytotoxicity against mouse MC38 cells assessed as cell death at 10 uM for 48 hrs by MTT assay. It counts as toxicity, cell-based. As to conditions: mc-38, 48 h. A general note: Formazan colour is commonly taken as a measure of viable cells.
Data set [4] in a line: Toxicity in BALB/c mouse implanted with mouse CT26 cells assessed as weight loss at 25 mg/kg, ip qd administered for 10 days measured every 2 days for 12 days relative to control. Conditions: in vivo, 288 h, time 12 day. The data set is classed as organism-based.
A further data set deals with RKO. The experiment in a line: Cytotoxicity against human RKO cells over expressing human PD-L1 at above 10 uM. It counts as toxicity, cell-based.

Activity calls are given as the source filed them. The rule behind the calls is not given here.

Sequence of Programmed cell death 1 ligand 1 (Homo sapiens) (Q9NZQ7 whole entry): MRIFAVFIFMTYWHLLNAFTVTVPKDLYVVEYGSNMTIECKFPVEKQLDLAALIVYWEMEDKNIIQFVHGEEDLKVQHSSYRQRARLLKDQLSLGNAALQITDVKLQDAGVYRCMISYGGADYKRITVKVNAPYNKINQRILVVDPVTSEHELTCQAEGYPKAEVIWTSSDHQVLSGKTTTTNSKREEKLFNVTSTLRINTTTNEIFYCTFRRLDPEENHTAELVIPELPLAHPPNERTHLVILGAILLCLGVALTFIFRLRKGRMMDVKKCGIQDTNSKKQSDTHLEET

For `Cc1c(COc2cc(CNCCO)ccc2Cl)cccc1-c1ccccc1`, the IC50 with Jurkat was 7.8 µM. For the same compound, the inhibition in data set [1] amounted to 51.4%.

As to `COc1cc(OCc2cccc(-c3ccccc3)c2C)cc(OC)c1CNCCO[C@@H]1O[C@H](CO)[C@@H](O)[C@H](O)[C@H]1O`, the outcome in data set [2] was inactive.

`COc1nc(OCc2cccc(-c3ccccc3)c2C)ccc1CNCCNC(C)=O`: in the data set on Jurkat, the IC50 worked out at 2.6 µM. Further, in data set [3], the logD at 1 h was determined as 3.33. Besides, the Activity entry (in the data set with MC-38; in data set [4]; in the data set with RKO) was “Toxic” each time.

Broadly, the IC50 is the concentration at which inhibition is half-maximal. In general, inhibition refers to the percentage by which the read-out fell short of the control. Low values mean a response near the control, high ones a response far below the control. One may read the logD as the decadic logarithm of the distribution of all forms, ionised or not, between an organic phase and buffer at a given pH. A low value points to lower lipophilicity.
